Assay results from US20240199648A1, “MAP4K1 INHIBITORS” (Blueprint Medicines Corporation, priority 2021, published 2024).

Assays:
[1] = biological target: T1, MAP4K1 (HPK1) (Homo sapiens, UniProt Q92918); experiment: Inhibition of MAP4K1 biochemical enzymatic activity (EZReader 2 electrophoretic mobility shift assay); conditions: HPK1 (Invitrogen), S6K2tide 1.5 μM, 120 min; ATP 26 μM or 1000 μM (not stated which)
T1 construct: purchased Invitrogen
Outline: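 Mobility-shift assay: 0.1-15 nM enzyme, 1.5 μM fluorescent peptide, 20-1000 μM ATP (apparent Km or 1 mM) in HEPES pH 7.5, MgCl2, DTT, Brij 35; 60-180 min at 25° C, 1% DMSO. Ten-point 4-fold compound series in duplicate; EDTA-stopped, product/substrate peak ratio read.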

[2] = system: Primary T Cell; experiment: T cell enhancement of cytokines: IL2 measurement (HTRF) in expanded CD3+ T cells stimulated with anti-CD3/anti-CD28; assay type: cell-based, human; conditions: Homo sapiens, T-cell, 24 h, plate-bound anti-CD3 and soluble anti-CD28, 24 h, read-out: IL-2 Primary T Cell EC50
Protocol: T cells are isolated from whole blood of healthy donors by immunomagnetic negative selection following manufacture's protocol (StemCell Technologies, human T cell isolation kit). Purity of isolated cells is assessed by flow cytometry and yields 95-98% CD3^+ T cells. For expansion of T cells, 1×10^6 cells/well are plated in serum free cell expansion media (ThermoFisher) containing 30U of recombinant human IL2 (R&D) and stimulated with 25 ul of CD3/CD28 beads (Invitrogen) in 24 well plates for 3-4 days. T cells are then expanded in 175 cm flasks and maintained at a cell density of 1 to 2.5×10^6 cells/ml days by addition of ⅔ of fresh media every 2-3 days. After 10-14 days, cells are frozen in BamBanker freezing media (Thermo) and stored in liquid nitrogen.
For IL2 measurement, expanded CD3+ T cells are dispensed at 100K cells/well (cultured in X-VIVO 10 Serum-free media) and are stimulated with plate-bound anti-CD3 and soluble anti-CD28 in the presence of vehicle or compound of the disclosure at various concentrations for 24 h. As outlined in the manufacturer's protocol (Cisbio), 16 μL of conditioned media is transferred to a white 384-well low volume plate. Following a 24 h incubation with the anti-IL2 antibodies, the homogenous time resolved fluorescence (HTRF) is measured.

T1 sequence (Q92918 whole entry): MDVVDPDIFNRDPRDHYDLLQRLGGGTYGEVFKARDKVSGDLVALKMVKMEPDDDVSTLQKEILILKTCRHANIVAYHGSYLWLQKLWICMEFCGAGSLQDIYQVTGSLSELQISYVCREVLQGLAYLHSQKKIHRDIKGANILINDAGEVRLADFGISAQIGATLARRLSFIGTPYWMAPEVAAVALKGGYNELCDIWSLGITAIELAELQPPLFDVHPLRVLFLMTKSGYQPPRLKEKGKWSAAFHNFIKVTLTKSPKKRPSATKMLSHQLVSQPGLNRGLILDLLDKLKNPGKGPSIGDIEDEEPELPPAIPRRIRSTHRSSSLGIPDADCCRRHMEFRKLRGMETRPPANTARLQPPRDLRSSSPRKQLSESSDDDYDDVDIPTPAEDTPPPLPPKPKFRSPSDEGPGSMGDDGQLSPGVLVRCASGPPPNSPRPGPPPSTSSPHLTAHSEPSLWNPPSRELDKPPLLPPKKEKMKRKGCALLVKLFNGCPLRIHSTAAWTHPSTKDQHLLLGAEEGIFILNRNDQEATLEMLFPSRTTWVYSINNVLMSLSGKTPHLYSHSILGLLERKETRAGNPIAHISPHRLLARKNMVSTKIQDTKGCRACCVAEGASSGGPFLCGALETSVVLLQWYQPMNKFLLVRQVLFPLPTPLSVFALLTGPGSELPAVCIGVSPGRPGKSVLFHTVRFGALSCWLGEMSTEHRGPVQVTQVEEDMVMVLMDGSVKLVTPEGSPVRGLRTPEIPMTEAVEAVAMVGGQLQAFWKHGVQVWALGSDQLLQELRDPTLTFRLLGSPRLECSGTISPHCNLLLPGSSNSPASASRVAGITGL

IC50 [1] [nM]	EC50 [2] [nM]	Structure (SMILES)
0.19	23.2	CC(C)(N)c1cnc(OC2CN(C(=O)C3CC3)C2)c2cnc(Nc3ccc4c(n3)C3(CC3)C(C)(C)OC4=O)cc12 [Compound 63]
0.2	17.5	C[C@@H]1c2nc(Nc3cc4c(C(C)(C)N)cnc(O[C@@H]5CN(C(=O)C6CC6)[C@H]5C)c4cn3)ccc2C(=O)OC1(C)C [Compound 65]
0.18	12.5	CC[C@@](C)(N)c1cnc(OC2CN(C(=O)C3CC3)C2)c2cnc(Nc3ccc4c(n3)[C@@H](C)C(C)(C)OC4=O)cc12 [Compound 70]
0.21	30.5	C[C@@H]1c2nc(Nc3cc4c(C(C)(C)N)cnc(OC5CN(C(=O)N6CCC6)C5)c4cn3)ccc2C(=O)OC1(C)C [Compound 72]
0.17	47.3	C[C@@H]1OC(=O)c2ccc(Nc3cc4c(C(C)(C)N)cnc(OC5CN(C(=O)[C@@H]6CCCO6)C5)c4cn3)nc2[C@H]1C [Compound 76]
0.36	47.8	C[C@@H]1c2nc(Nc3cc4c(C(C)(C)N)cnc(OC5CN(C(=O)C6COC6)C5)c4cn3)ccc2C(=O)OC1(C)C [Compound 77]
0.17	62.9	COC[C@@](C)(N)c1cnc(OC2CN(C(=O)C3CC3)C2)c2cnc(Nc3ccc4c(n3)[C@@H](C)[C@H](C)OC4=O)cc12 [Compound 80]
0.1	17.8	C[C@@H]1OC(=O)c2ccc(Nc3cc4c(C(C)(C)N)cnc(OC5CN(C(=O)[C@@H]6C[C@@H]6F)[C@H]5C)c4cn3)nc2[C@H]1C (stereo partly shown) [Compound 85]
0.17	34	COC1CN(C(=O)[C@H]2C[C@@H](Oc3ncc(C(C)(C)N)c4cc(Nc5ccc6c(n5)[C@@H](C)[C@H](C)OC6=O)ncc34)C2)C1 [Compound 92]
0.22	19.8	C[C@@H]1c2nc(Nc3cc4c(C(C)(C)N)cnc(OC5CN(C(=O)N6CC(F)C6)C5)c4cn3)ccc2C(=O)OC1(C)C [Compound 95]
0.11	22.1	C[C@@H]1c2nc(Nc3cc4c(C(C)(C)N)cnc(O[C@H]5C[C@@H](C(=O)N6CC(F)(F)C6)C5)c4cn3)ccc2C(=O)OC1(C)C [Compound 100]
0.13	17.8	C[C@@H]1c2nc(Nc3cc4c(C(C)(C)N)cnc(OC5CN(C(=O)N6CC(F)(F)C6)C5)c4cn3)ccc2C(=O)OC1(C)C [Compound 101]
0.12	24	C[C@@H]1OC(=O)c2ccc(Nc3cc4c(C(C)(C)N)cnc(OC5CN(C(=O)C6(C(F)(F)F)CC6)C5)c4cn3)nc2[C@H]1C [Compound 102]
0.43	9.6	CC[C@@](C)(N)c1cnc(OC2CN(C(C)=O)C2)c2cnc(Nc3ccc4c(n3)C(C)(C)COC4=O)cc12 [Compound 111]
0.17	17.7	CCC(=O)N1C[C@@H](Oc2ncc(C(C)(C)N)c3cc(Nc4ccc5c(n4)[C@@H](C)C(C)(C)OC5=O)ncc23)[C@@H]1C [Compound 118]
0.2	90	COC[C@@](C)(N)c1cnc(O[C@@H]2CN(C(C)=O)[C@H]2C)c2cnc(Nc3ccc4c(n3)[C@@H](C)[C@H](C)OC4=O)cc12 [Compound 119]
0.25	29.4	CCC(=O)N1CC(Oc2ncc([C@](C)(N)COC)c3cc(Nc4ccc5c(n4)[C@@H](C)[C@H](C)OC5=O)ncc23)C1 [Compound 120]
0.2	41.5	COC[C@@](C)(N)c1cnc(OC2CN(C(=O)OC)C2)c2cnc(Nc3ccc4c(n3)[C@@H](C)[C@H](C)OC4=O)cc12 [Compound 121]
0.12	53.7	COC[C@@](C)(N)c1cnc(OC2CN(C(C)=O)[C@H]2C)c2cnc(Nc3ccc4c(n3)[C@@H](C)C(C)(C)OC4=O)cc12 (stereo partly shown) [Compound 122]
0.1	60.8	CCC(=O)N1CC(Oc2ncc([C@](C)(N)COC)c3cc(Nc4ccc5c(n4)[C@@H](C)C(C)(C)OC5=O)ncc23)C1 [Compound 123]
0.17	130	COC[C@@](C)(N)c1cnc(OC2CN(C(=O)OC)C2)c2cnc(Nc3ccc4c(n3)[C@@H](C)C(C)(C)OC4=O)cc12 [Compound 125]

Further lines, the compound ahead of its results:

Structure (SMILES)	IC50 [1] [nM]	EC50 [2] [nM]
COC1CN(C(=O)[C@H]2C[C@@H](Oc3ncc(C(C)(C)N)c4cc(Nc5ccc6c(n5)[C@@H](C)C(C)(C)OC6=O)ncc34)C2)C1 [Compound 15, (R)-2-((5-(2-aminopropan-2-yl)-8-((cis)-3-(3-methoxyazetidine-1-carbonyl)cyclobutoxy)-2,7-naphthyridin-3-yl)amino)-7,7,8-trimethyl-7,8-dihydro-5H-pyrano[4,3-b]pyridin-5-one]	0.13	42
CC(=O)N1CC(Oc2ccc(C(C)(C)N)c3cc(Nc4ccc5c(n4)[C@@H](C)[C@H](C)OC5=O)ncc23)C1 [Compound 19]	0.2	41.1
CC(=O)N1CC(Oc2ccc(C(C)(C)N)c3cc(Nc4ccc5c(n4)[C@@H](C)C(C)(C)OC5=O)ncc23)C1 [Compound 21, (R)-2-((8-((1-Acetylazetidin-3-yl)oxy)-5-(2-aminopropan-2-yl)isoquinolin-3-yl)amino)-7,7,8-trimethyl-7,8-dihydro-5H-pyrano[4,3-b]pyridin-5-one]	0.14	16.8
CC(=O)N1CC(Nc2ncc(C(C)(C)N)c3cc(Nc4ccc5c(n4)[C@@H](C)C(C)(C)OC5=O)ncc23)C1 [Compound 22]	0.54	479
C[C@@H]1OC(=O)c2ccc(Nc3cc4c(C(C)(C)N)ccc(OC5CN(C(=O)C6CC6)C5)c4cn3)nc2[C@H]1C [Compound 29]	0.12	11
C[C@@H]1c2nc(Nc3cc4c(C(C)(C)N)cnc(OCCN5CCCC5=O)c4cn3)ccc2C(=O)OC1(C)C [Compound 31]	0.21	42.8
C[C@@H]1OC(=O)c2ccc(Nc3cc4c(C(C)(C)N)cnc(O[C@H]5C[C@@H](C(=O)N(C)C)C5)c4cn3)nc2[C@H]1C [Compound 33]	0.15	9.2
C[C@@H]1OC(=O)c2ccc(Nc3cc4c(C(C)(C)N)cnc(OC5CN(C(=O)N(C)C)C5)c4cn3)nc2[C@H]1C [Compound 34]	0.19	43.3
C[C@@H]1c2nc(Nc3cc4c(C(C)(C)N)cnc(OCCCC(=O)N(C)C)c4cn3)ccc2C(=O)OC1(C)C [Compound 39]	0.14	14
CC[C@@](C)(N)c1cnc(OC2CN(C(=O)C3CC3)C2)c2cnc(Nc3ccc4c(n3)[C@@H](C)[C@H](C)OC4=O)cc12 [Compound 49]	0.24	25.7
C[C@@H]1OC(=O)c2ccc(Nc3cc4c(C(C)(C)N)cnc(OC5CN(C(=O)C6COC6)C5)c4cn3)nc2[C@H]1C [Compound 54]	0.21	29.3
COC[C@@](C)(N)c1ccc(OC2CN(C(C)=O)C2)c2cnc(Nc3ccc4c(n3)[C@@H](C)C(C)(C)OC4=O)cc12 [Compound 56]	0.17	23.8
C[C@@H]1c2nc(Nc3cc4c(C(C)(C)N)cnc(OC5CN(C(=O)N(C)C)C5)c4cn3)ccc2C(=O)OC1(C)C [Compound 57]	0.13	21.1
COC[C@@](C)(N)c1cnc(OC2CN(C(C)=O)C2)c2cnc(Nc3ccc4c(n3)[C@@H](C)C(C)(C)OC4=O)cc12 [Compound 62]	0.29	107
